4 substances from patent US12377155B2, “Bicyclic peptide ligands specific for PSMA” (BicycleRD Limited, priority 2018, dated 2025) can be followed below.

PSMA, sequence (Q04609 whole entry): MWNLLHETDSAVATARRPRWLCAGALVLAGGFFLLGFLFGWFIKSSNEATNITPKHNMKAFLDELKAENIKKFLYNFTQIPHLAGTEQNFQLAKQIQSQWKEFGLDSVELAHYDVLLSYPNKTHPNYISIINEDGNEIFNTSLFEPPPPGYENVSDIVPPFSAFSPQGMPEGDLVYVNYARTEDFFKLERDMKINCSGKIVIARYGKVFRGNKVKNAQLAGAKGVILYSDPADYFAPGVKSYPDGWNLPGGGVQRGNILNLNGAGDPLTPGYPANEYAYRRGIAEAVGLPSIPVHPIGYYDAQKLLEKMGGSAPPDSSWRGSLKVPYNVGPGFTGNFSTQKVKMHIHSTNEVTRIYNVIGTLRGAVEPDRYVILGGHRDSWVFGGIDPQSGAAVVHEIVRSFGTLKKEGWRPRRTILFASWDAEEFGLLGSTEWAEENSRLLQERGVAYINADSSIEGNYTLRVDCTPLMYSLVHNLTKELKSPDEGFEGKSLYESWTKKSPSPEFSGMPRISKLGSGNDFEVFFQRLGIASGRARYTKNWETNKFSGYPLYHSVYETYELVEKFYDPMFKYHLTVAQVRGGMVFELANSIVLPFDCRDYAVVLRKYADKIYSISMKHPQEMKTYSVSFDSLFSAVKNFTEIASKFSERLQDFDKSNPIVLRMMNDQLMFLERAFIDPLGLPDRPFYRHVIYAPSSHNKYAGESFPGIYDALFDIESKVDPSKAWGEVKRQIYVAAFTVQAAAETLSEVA

The assay has as its target PSMA (Homo sapiens, UniProt Q04609). Nature of the assay: PSMA binding, fluorescence polarization assay. Particulars: as shown in Table 1. How it is done: PSMA binding was measured using the fluorescence polarization assay methodology described in Shen et al (2013) PLOS ONE 8(7), […] and PSMA enzyme inhibition was measured using the methodology described in WO 2009/070302.
The peptide ligands of the invention were tested in the above mentioned PSMA binding and enzyme inhibition assays and the results are shown in Table 1: […]
On the technique in general: Polarisation of emitted light reports the rotation of a fluorescent probe.
On to “Ac-(D-E)VCWDCFM(Nle)EDGTCA-Sar6-(D-K) [21-31-04-T01-N009]”, for which the “PSMA binding (statement in words)” value is given as “superior PSMA binding”.

As to EVCWDCFMMEDGTCA [21-31-04-T01-N001], the “PSMA binding (statement in words)” value is listed as “superior PSMA binding”.

In the case of FCSECYMMEDGTCA [21-31-11-T01-N001], the “PSMA binding (statement in words)” value was “superior PSMA binding”.

Turning to LCMECYMMEDGTCA [21-31-12-T01-N001], the “PSMA binding (statement in words)” value was “superior PSMA binding”.
